Experiment [1] has as its system bovine RPE-choroid complex. The experiment in a line: Water transport across ex vivo bovine RPE-choroid complex in Ussing-type chamber. It is filed as cell-based.
Description: The effect of DPOFA was examined in an ex vivo bovine RPE-choroid complex model.
Ringer's solution contained 120 mM NaCl, 5 mM KCl, 23 mM NaHCO3, 1 mM MgCl2, 1.8 mM CaCl2, 2.0 mM taurine, and 10 mM glucose at pH 7.4. The osmolariy of the solution was 295±5 mOsM. The solution was placed in the cell culture incubator set at 37° C. with 5% CO2. The solution was kept in the incubator for at least 2 says before use. Glutathione at final concentration of 1 mM was added to solutions minutes before the use in water transport experiments.
To prepare 5.5 ml of the 108 mM DPOFA stock solution, 220 mg of DPOFA was weighted. Four milliliters of water was added to the drug followed by addition of 104 microliters of 5M NaCl solution. Small magnetic stirring bar was placed to the drug suspension followed by immersion of the pH electrode. Slow addition of 1N NaOH solution began with careful pH monitoring. NaOH was added until pH reached the 7.2-7.4 range at which point the drug was completely dissolved. pH electrode and magnetic stirring bar were removed, and the volume was adjusted to 5.5 ml. The stock was aliquoted and stored at −20° C. Working DPOFA dilutions were made in Ringer's solution or in PBS.
An Ussing-type chamber was used to assess water transport across tissues preparations. Three hours before the experiment two Ussing-like chambers were assembled and filled with phosphate buffered saline. The cambers were placed on the thermo-jacketed stand to pre-warm the chambers to the 37° C.
Bovine eyes were obtained from the local abattoir and placed to the cold Ringer's solution containing 120 mM NaCl, 5 mM KCl, 23 mM NaHCO3, 1 mM MgCl2, 1.8 mM CaCl2, 2.0 mM taurine, and 10 mM glucose pH 7.4. Eyes were transferred to the lab within 2-3 hours after enucleation and rinsed repeatedly in Ringer's solution. Excessive muscle and connective tissue were trimmed at room temperature. The enucleated eye was dissected at pars plana, and the anterior portion was discarded along with the vitreous. If sensory retina detached during the removal of vitreous, the eye was considered unusable and was discarded. After the removal of vitreous, the posterior portion of the eye with the attached neuroretina was visually examined to locate the area not containing large blood vessels in the sclera. Using a size 13 brass cork bore, the selected area was punched through using a hammer.
The resulting tissue “button” was placed in a Petri dish containing Ringer's solution. The neuroretina was carefully peeled off and discarded. The flat circular sheet of the RPE-choroid tissue was carefully removed with forceps, placed on the flat spoon and transported to the Petri dish where the “basal” round window of the Ussing-type chamber (containing metal mesh) was placed and covered with Ringer's solution. The choroid-RPE circular sheet was placed on the metal mesh of the“basal” window with choroid side down. The RPE side of the RPE-choroid sheet was covered with the nylon mesh shown, followed by clipping with the “apical” portion of the Ussing-type chamber window.
The pre-warmed Ussing-like chambers were removed from the thermo-jacketed stand, freed from the PBS solution, and disassembled. […]
Pre-warmed Ringer's solution was added first to the apical side and then to the basal side of the chamber. The temperature within the chambers was checked and if it reached 35° C., the electrical resistance was measured using the modified electrode and the DVC-1000 Voltage/Current Clamp instrument (WPI, Inc.). […]
Experiment [2] deals with glial cell. The settings on record: central nervous system; reported; cited from earlier work.

Molecules are shown by their SMILES.

For the compound `CCC[C@]12CCC(=O)C=C1c1c(cc(OCC(=O)O)c(Cl)c1Cl)C2` [DPOFA, [(R)-(+)-(5,6-dichloro 2,3,9,9a-tetrahydro 3-oxo-9a-propyl-1H-fluoren-7-yl)oxy]acetic acid], the “stimulation of water transport across the bovine RPE-choroid complex” value in experiment [1] (ex vivo, apical to basal side, overall result) was “stimulated water transport”. For the same compound, in experiment [1] (first experiment, FIG. 1, 6 μM vs 20 μM and 60 μM), the “water transport at 6 μM compared with the higher concentrations” value is “more significant transport of water than 20 μM and 60 μM”. In addition, in experiment [1] (first experiment, FIG. 1, 6 μM, 20 μM, 60 μM DPOFA), the “transport of water from apical to basal side (upward shift of basal capillary meniscus)” value is given as “stimulated significant increase in transport of water”. For the same compound, in experiment [1] (second experiment, FIG. 2, 6 μM, 20 μM, 60 μM DPOFA), the “movement of water from apical to basal side” value is on record as “increased the movement of water”. For the same compound, the “concentration giving the strongest stimulation of water transport” value in experiment [1] (second experiment, FIG. 2, 6, 20, 60 μM tested) came out at 6 µM. Also, the “inhibition of glial cell swelling and reactive gliosis” value in experiment [2] is “effective inhibitor of glial cell swelling and reactive gliosis”.

(Values after US20130189246A1, “TREATMENT OF OPHTHALMIC CONDITIONS WITH FLUORENONE DERIVATIVES” (The Trustees of Columbia University in the City of New York, priority 2009, published 2013).)
